Columns and labels:
[1] = target: T1, cathepsin D (from human liver) (Homo sapiens, UniProt P07339); assay: Cathepsin D fluorescent substrate kinetic assay; format: biochemical; conditions: pH 5.5, substrate WTSVLMAAPC-MR121
T1 construct: cathepsin D (from human liver, Calbiochem) diluted in assay buffer; purchased Calbiochem; host or cells: human liver
From the text: Cathepsin D and Cathepsin E Fluorescent Substrate Kinetic Assays
The MR121 fluorescence assays described below are based on the fact that MR121 forms a non-fluorescent ground state complex with tryptophan. In solution this formation occurs at millimolar concentrations of tryptophan. The mechanism can be used to design a generic biochemical assay for proteases. A substrate peptide is labeled at the N-terminus with tryptophan and at the C-terminus with the fluorophore MR121 (for cathepsin D the 10 amino acid peptide WTSVLMAAPC-MR121 was used; for cathepsin E, MR121-CKLVFFAEDW was used). In absence of protease activity, the substrates remain intact and the MR121 fluorescence is reduced by the high local Trp-concentration. If the substrates are cleaved by the enzymes the MR121 fluorescence is recovered.
The fluorescent substrate cathepsin D and cathepsin E kinetic assays were performed at room temperature in 384-well microtiter plates (black with clear flat bottom, non-binding surface plates from Corning) in a final volume of 51 μl. The test compounds were serially diluted in DMSO (15 concentrations, ⅓ dilution steps) and 1 μl of diluted compounds were mixed for 10 min with 40 μl of cathepsin D (from human liver, Calbiochem) diluted in assay buffer (100 mM sodium acetate, 0.05% BSA, pH 5.5; final concentration:200 nM) or with 40 μl of recombinant human cathepsin E (R&D Systems) diluted in assay buffer (100 mM sodium acetate, 0.05% BSA, pH 4.5; final concentration:0.01 nM). After addition of 10 μl of the cathepsin D substrate WTSVLMAAPC-MR121 diluted in cathepsin D assay buffer (final concentration:300 nM) or 10 μl of the cathepsin E substrate MR121-CKLVFFAEDW diluted in cathepsin E assay buffer (final concentration:300 nM), the plates were strongly shaken for 2 minutes. The enzymatic reaction was followed in a plate: vision reader (Perkin Elmer) (excitation wavelength:630 nm; emission:695 nm) for at least 30 minutes in a kinetic measurement detecting an increase of MR121 fluorescence during the reaction time. The slope in the linear range of the kinetic was calculated and the IC50 of the test compounds were determined using a four parameter equation for curve fitting.

CYP2D6 = target: T2, CYP2D6 (Homo sapiens, UniProt P10635); assay: CYP inhibition assay, human liver microsomes; format: in vitro ADME; conditions: human liver microsomes, substrate dextromethorphan; read-out: CYP IC50 2D6
T2 construct: 0.2 mg/ml pooled human liver microsomes; from tissue; host or cells: pooled human liver microsomes
Experimental: (§1) Inhibition of cytochromes P450 (CYPs) 2C9, 2D6 and 3A4 was assessed using human liver microsomes and CYP-selective substrate metabolism reactions. 50 μl incubations were made up containing (finally) 0.2 mg/ml pooled human liver microsomes, 5 μM substrate (diclofenac for CYP2C9 [4′hydroxylase], dextromethorphan for CYP2D6 [O-demethylase] or midazolam for CYP3A4 [1′hydroxylase]), 0.25 μL DMSO containing test inhibitor and NADPH regenerating system. Test inhibitor concentrations of 50, 16.7, 5.6, 1.9, 0.6 and 0.2 μM were assessed in singlicate. Incubations were prewarmed to 37° C. for 10 minutes before initiation by addition of NADPH regenerating system. Incubations were quenched after 5 minutes (20 minutes for dextromethorphan) by addition of 50 μl cold acetonitrile containing 20 ng/ml 4-OH-diclofenac-13C6, 20 ng/mL dextrorphan-D3 and 20 ng/mL 1-OH-midazolam-D4. Quenched incubates were stored at −20° C. for at least 1 hour before centrifugation (20,000× g, 20 minutes). Supernatants were removed and diluted 1:1 with water prior to analysis using a RapidFire sample injector system and API4000 mass spectrometer. Peak areas for substrate, metabolite and stable-labelled metabolite standard were determined using MS/MS. The peak area ratios between the metabolite generated by the enzymatic reaction and the internal standard were used in subsequent calculations. The percentage of (DMSO) control activity was calculated for each incubate and IC50 values estimated by non-linear regression. Sulfaphenazole, quinidine or ketoconazole were tested in each CYP2C9, CYP2D6 or CYP3A4 inhibition experiment, respectively, to ensure assay sensitivity and reproducibility. (Validated assays for human cytochrome P450 activities, R. L. Walsky and R. S. Obach, Drug Metabolism and Disposition 32: 647-660, 2004. and S. Fowler and H. Zhang, The AAPS Journal, Vol. 10, No. 2, 410-424, 2008)

CYP3A4 = target: T3, CYP3A4 (Homo sapiens, UniProt P08684); assay: CYP inhibition assay, human liver microsomes; format: in vitro ADME; conditions: human liver microsomes, substrate midazolam; read-out: CYP IC50 3A4
T3 construct: 0.2 mg/ml pooled human liver microsomes; from tissue; host or cells: pooled human liver microsomes
Experimental: as §1

CYP2C9 = target: T4, CYP2C9 (Homo sapiens, UniProt P11712); assay: CYP inhibition assay, human liver microsomes; format: in vitro ADME; conditions: human liver microsomes, substrate diclofenac; read-out: CYP IC50 2C9
T4 construct: 0.2 mg/ml pooled human liver microsomes; from tissue; host or cells: pooled human liver microsomes
Experimental: as §1

[2] = GSH human, in vitro adduct formation; format: in vitro ADME; parameters: key: NF = in vitro no significant adduct formation relative to control; conditions: in vitro adduct formation relative to control
BACE1 = target: T5, BACE1 (Homo sapiens, UniProt P56817); assay: Cellular Aβ-lowering assay (Abeta 40 AlphaLISA, HEK293 APP cells); format: cell-based; conditions: 18-20 hrs incubation, Aβ 40 in culture supernatant, read-out: BACE1 cell act. Aβ40 IC50
T5 construct: endogenous in cells; host or cells: HEK293 APP cells
Method in brief: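 HEK293 APP cells were treated with compound for 18-20 hrs at 37° C in 1% DMSO. Secreted Aβ40 in the supernatant was measured by AlphaLISA at 615 nm. Values are % of the DMSO-only signal, fit to give IC50.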

T1 sequence (P07339 65-162 limits assumed): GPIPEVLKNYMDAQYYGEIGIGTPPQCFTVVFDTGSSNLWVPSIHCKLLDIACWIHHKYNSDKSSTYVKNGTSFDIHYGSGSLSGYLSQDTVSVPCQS
T1 sequence (P07339 169-412 limits assumed): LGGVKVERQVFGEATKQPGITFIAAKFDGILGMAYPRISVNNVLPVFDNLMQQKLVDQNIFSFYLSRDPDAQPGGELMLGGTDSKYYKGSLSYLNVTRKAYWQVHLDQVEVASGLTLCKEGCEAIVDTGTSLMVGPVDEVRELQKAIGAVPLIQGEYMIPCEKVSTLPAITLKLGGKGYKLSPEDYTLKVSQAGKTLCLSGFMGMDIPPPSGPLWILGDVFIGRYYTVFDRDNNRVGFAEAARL
T5 sequence (P56817 46-501): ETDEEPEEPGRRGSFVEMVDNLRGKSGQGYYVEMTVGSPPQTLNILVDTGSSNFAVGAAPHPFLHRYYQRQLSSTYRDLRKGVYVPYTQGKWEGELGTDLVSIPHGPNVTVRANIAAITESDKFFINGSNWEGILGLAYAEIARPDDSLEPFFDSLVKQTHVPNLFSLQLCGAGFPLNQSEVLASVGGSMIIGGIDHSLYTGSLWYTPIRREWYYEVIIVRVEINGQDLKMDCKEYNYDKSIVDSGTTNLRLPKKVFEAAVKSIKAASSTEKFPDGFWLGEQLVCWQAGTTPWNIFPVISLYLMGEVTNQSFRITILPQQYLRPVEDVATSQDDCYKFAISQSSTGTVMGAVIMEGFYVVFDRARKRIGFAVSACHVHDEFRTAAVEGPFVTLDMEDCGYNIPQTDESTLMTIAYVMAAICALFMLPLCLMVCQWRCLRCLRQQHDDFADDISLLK
T4 sequence (P11712 whole entry): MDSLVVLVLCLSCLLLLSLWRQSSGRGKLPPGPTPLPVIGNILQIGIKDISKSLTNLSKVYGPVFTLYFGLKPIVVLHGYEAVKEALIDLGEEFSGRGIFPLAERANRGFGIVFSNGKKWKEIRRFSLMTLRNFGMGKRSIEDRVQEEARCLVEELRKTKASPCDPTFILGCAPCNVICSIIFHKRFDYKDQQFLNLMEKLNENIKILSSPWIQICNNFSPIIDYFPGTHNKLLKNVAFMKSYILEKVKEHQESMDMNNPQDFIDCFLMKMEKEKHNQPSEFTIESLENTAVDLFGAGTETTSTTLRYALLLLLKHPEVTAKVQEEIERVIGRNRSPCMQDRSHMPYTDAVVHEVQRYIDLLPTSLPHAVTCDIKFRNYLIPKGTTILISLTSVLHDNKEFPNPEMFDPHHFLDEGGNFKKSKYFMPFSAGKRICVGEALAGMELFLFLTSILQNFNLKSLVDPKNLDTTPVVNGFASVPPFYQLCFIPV
T3 sequence (P08684 whole entry): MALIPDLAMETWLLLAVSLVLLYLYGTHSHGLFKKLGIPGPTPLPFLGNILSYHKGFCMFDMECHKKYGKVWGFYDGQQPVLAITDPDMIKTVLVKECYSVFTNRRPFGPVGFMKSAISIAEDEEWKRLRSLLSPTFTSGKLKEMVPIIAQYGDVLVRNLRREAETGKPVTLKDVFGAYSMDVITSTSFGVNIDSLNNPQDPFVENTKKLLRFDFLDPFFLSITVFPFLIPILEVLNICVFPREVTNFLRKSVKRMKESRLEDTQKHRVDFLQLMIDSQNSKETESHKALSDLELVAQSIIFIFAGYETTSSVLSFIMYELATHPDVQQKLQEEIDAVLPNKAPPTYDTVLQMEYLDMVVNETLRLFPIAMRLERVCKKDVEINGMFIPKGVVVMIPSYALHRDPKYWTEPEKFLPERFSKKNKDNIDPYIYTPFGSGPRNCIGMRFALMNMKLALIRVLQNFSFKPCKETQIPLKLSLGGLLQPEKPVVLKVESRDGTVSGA
T2 sequence (P10635 whole entry): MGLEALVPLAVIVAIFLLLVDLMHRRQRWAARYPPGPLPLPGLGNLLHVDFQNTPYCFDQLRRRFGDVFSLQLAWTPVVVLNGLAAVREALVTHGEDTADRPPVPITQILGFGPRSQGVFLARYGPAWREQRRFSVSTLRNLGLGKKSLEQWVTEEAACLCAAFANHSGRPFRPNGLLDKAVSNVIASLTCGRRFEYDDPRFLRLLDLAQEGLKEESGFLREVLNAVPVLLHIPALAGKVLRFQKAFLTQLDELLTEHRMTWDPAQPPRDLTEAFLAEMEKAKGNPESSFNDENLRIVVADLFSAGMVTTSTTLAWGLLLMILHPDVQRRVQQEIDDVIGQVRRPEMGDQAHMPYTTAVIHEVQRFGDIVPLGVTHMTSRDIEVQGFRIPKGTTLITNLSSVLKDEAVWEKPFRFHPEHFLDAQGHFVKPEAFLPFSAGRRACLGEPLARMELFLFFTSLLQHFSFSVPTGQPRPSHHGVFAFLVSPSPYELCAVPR

Row | IC50 [1] [µM] | IC50 (CYP2D6) [µM] | IC50 (CYP3A4) [µM] | IC50 (CYP2C9) [µM] | GSH human [2] | IC50 (BACE1) [µM] | SMILES
1 | 38 | > 10 | > 10 | > 10 | NF | 0.006 | CN=[S@@]1(=O)C[C@@](C)(c2cc(-c3cc(-c4ncc(Cl)cn4)no3)ccc2F)N=C(N)C1(C)C [Example 6, (1R,3R)-5-amino-3-(5-(3-(5-chloropyrimidin-2-yl)isoxazol-5-yl)-2-fluorophenyl)-3,6,6-trimethyl-1-(methylimino)-3,6-dihydro-2H-1,4-thiazine 1-oxide 2,2,2-trifluoroacetate]
2 | 37 | > 10 | > 10 | > 10 | NF | 0.056 | CN=[S@@]1(=O)C[C@@](C)(c2cc(-c3cc(-c4cnc(OC)cn4)no3)ccc2F)N=C(N)C1(C)C [Example 7, (1R,3R)-5-amino-3-(2-fluoro-5-(3-(5-methoxypyrazin-2-yl)isoxazol-5-yl)phenyl)-3,6,6-trimethyl-1-(methylimino)-3,6-dihydro-2H-1,4-thiazine 1-oxide 2,2,2-trifluoroacetate]
3 | 29 |  | > 10 | > 10 | NF | 0.013 | CN=[S@@]1(=O)C[C@@](C)(c2cc(-c3cc(-c4cnc(OCC(F)F)cn4)no3)ccc2F)N=C(N)C1(C)C [Example 5, (1R,3R)-5-amino-3-(5-(3-(5-(2,2-difluoroethoxy)pyrazin-2-yl)isoxazol-5-yl)-2-fluorophenyl)-3,6,6-trimethyl-1-(methylimino)-3,6-dihydro-2H-1,4-thiazine 1-oxide 2,2,2-trifluoroacetate]
4 | 39 | > 10 | > 10 | > 10 |  | 0.05 | [2H]C([2H])([2H])N=[S@@]1(=O)C[C@@](C)(c2cc(-c3cc(-c4cnc(OC)cn4)no3)ccc2F)N=C(N)C1(C)C [Example 24, (1R,3R)-3-[2-fluoro-5-[3-(5-methoxypyrazin-2-yl)isoxazol-5-yl]phenyl]-3,6,6-rimethyl-1-oxo-1-(trideuteriomethylimino)-2H-1,4-thiazin-5-amine 2,2,2-trifluoroacetate]
